According to ChEMBL document CHEMBL1201862, “PubChem BioAssay data set” (2004):
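Values below derive from 48-hour exposures of cells grown in 96-well plates, with endpoints linearly interpolated between the two concentrations bracketing the appropriate inhibition level. GI50 marks 50% less growth.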 Active and inactive are the calls of the source. No stated cut-off is given here; in the data, active = GI50 up to about 1.1 µM and inactive = higher.

Legend:
Experiment in all cases: DTP human tumour cell line panel, 48 h
DLD-1 = test system: DLD-1
XF498 = test system: XF498
RXF 631 = test system: RXF 631
DMS-114 = test system: DMS-114
SNB-78 = test system: SNB-78
LXFL 529 = test system: LXFL 529
KM-20L2 = test system: KM-20L2
HOP-18 = test system: HOP-18
M19-MEL = test system: M19-MEL

Measured: GI50

C[n+]1c2ccccc2c(NC(CCC(N)=O)C(=O)O)c2ccccc21 (stereo not given)
inactive: DLD-1 > 100 µM | XF498 > 100 µM | RXF 631 > 100 µM | DMS-114 > 100 µM | SNB-78 > 100 µM | LXFL 529 > 100 µM | KM-20L2 > 100 µM | HOP-18 > 100 µM | M19-MEL > 100 µM

N=C(N)NS(=O)(=O)c1ccc(NC(=O)c2cccc3c(O)c4ccccc4nc23)cc1
inactive: DLD-1 > 100 µM | XF498 > 100 µM | DMS-114 > 100 µM | SNB-78 42.1 µM | LXFL 529 > 100 µM | KM-20L2 > 100 µM | HOP-18 > 86.5 µM | M19-MEL > 100 µM

CCOC(=O)Cn1c2ccccc2c(=O)c2cc(C)c(C)c(C#N)c21
inactive: DLD-1 > 100 µM | XF498 30.2 µM | RXF 631 > 100 µM | SNB-78 > 100 µM | LXFL 529 > 100 µM | KM-20L2 > 100 µM | HOP-18 > 100 µM | M19-MEL > 100 µM

Nc1c2ccccc2nc2nccnc12
inactive: DLD-1 > 100 µM | XF498 > 100 µM | DMS-114 > 100 µM | SNB-78 > 100 µM | KM-20L2 > 100 µM | HOP-18 > 100 µM | M19-MEL > 100 µM

Clc1cc(Cl)c2c(Cl)cc(Cl)c3c2c1N=S=N3
inactive: DLD-1 83.8 µM | XF498 12.9 µM | DMS-114 > 100 µM | SNB-78 > 100 µM | LXFL 529 > 100 µM | KM-20L2 > 100 µM | HOP-18 > 100 µM | M19-MEL > 100 µM

Cc1cc(C)c2c(c1)N[S@@](=O)S2
inactive: DLD-1 26.9 µM | XF498 22.6 µM | DMS-114 18.7 µM | SNB-78 26.1 µM | LXFL 529 13.2 µM | KM-20L2 51.3 µM | HOP-18 23.6 µM | M19-MEL 21.7 µM

O=C(Nc1ccccc1Cl)c1ccc([N+](=O)[O-])cc1
inactive: DLD-1 > 100 µM | XF498 > 100 µM | SNB-78 39.7 µM | KM-20L2 > 100 µM | M19-MEL > 100 µM

Cc1ccccc1C1OC(=O)c2ccc3ccccc3c21 (stereo not given)
active: RXF 631 0.607 µM
inactive: DLD-1 3.37 µM | XF498 2.31 µM | DMS-114 4.67 µM | SNB-78 6.5 µM | LXFL 529 3.38 µM | KM-20L2 4.16 µM | HOP-18 7.64 µM | M19-MEL 3.27 µM

COc1ccc(-c2oc3cc(O)c(OC)c(O)c3c(=O)c2OC2OC(CO)C(O)C(O)C2O)cc1 (stereo not given)
inactive: DLD-1 > 100 µM | DMS-114 > 100 µM | SNB-78 > 100 µM | LXFL 529 > 100 µM | KM-20L2 > 100 µM | HOP-18 50.4 µM | M19-MEL > 100 µM

CSc1ccc(N2C(=O)C3c4[nH]c5ccccc5c4C4CCC(C(C)(C)C)CC4C3C2=O)cc1 (stereo not given)
inactive: DLD-1 52.4 µM | XF498 27.7 µM | DMS-114 15.2 µM | SNB-78 7.94 µM | LXFL 529 18.5 µM | KM-20L2 48.4 µM | HOP-18 22.8 µM | M19-MEL 31.9 µM

CC1=C(C)CC2(CCCCC2=O)[S+]([O-])C1 (stereo not given)
inactive: DLD-1 > 100 µM | XF498 > 100 µM | DMS-114 > 100 µM | SNB-78 > 100 µM | LXFL 529 > 100 µM | KM-20L2 > 100 µM | HOP-18 > 100 µM | M19-MEL > 100 µM

COc1cc(/C=C(\C#N)c2ccccc2)cc(OC)c1
inactive: DLD-1 76.9 µM | XF498 48 µM | DMS-114 27.5 µM | SNB-78 82.4 µM | LXFL 529 43.4 µM | KM-20L2 41.1 µM | M19-MEL 50 µM

CS/C(c1ccccc1)=[N+](/C)[O-]
inactive: DLD-1 > 61.5 µM | XF498 > 100 µM | RXF 631 > 100 µM | SNB-78 > 100 µM | LXFL 529 > 100 µM | KM-20L2 > 100 µM | HOP-18 > 100 µM | M19-MEL > 100 µM

C[Si](C)(C)/C(Br)=C\CCN1C(=O)CCC1O (stereo not given)
inactive: XF498 > 100 µM | DMS-114 > 100 µM | SNB-78 > 100 µM | LXFL 529 > 100 µM | KM-20L2 > 100 µM | HOP-18 > 100 µM | M19-MEL > 100 µM

CCOC(=O)N1C2C=C(C)C(C3C(C)C(=O)N31)N(C(=O)c1ccccc1)O2 (stereo not given)
inactive: DLD-1 > 100 µM | XF498 > 100 µM | RXF 631 > 100 µM | DMS-114 > 100 µM | SNB-78 > 100 µM | LXFL 529 > 100 µM | HOP-18 > 100 µM | M19-MEL > 100 µM

C/C(CC(=O)Nc1ccc(NC(=O)/C(C)=N/NS(=O)(=O)c2ccc(C)cc2)cc1)=N\NS(=O)(=O)c1ccc(C)cc1
inactive: DLD-1 > 100 µM | DMS-114 > 100 µM | SNB-78 > 100 µM | LXFL 529 > 100 µM | KM-20L2 > 100 µM | M19-MEL > 100 µM

C[C@H]1CC[P+](C)(c2ccccc2)C1 (stereo not given in full)
active: XF498 < 0.01 µM
inactive: DLD-1 > 100 µM | DMS-114 > 100 µM | SNB-78 > 100 µM | LXFL 529 > 100 µM | KM-20L2 > 100 µM | HOP-18 > 100 µM | M19-MEL > 100 µM

CCc1cc2c(O)c(c1)Cc1cc(CC)cc(c1O)Cc1cc(CC)cc(c1O)Cc1cc(CC)cc(c1O)Cc1cc(CC)cc(c1O)Cc1cc(CC)cc(c1O)Cc1cc(CC)cc(c1O)C2
inactive: DLD-1 > 100 µM | XF498 48.2 µM | DMS-114 > 100 µM | SNB-78 55 µM | LXFL 529 > 100 µM | KM-20L2 > 100 µM | M19-MEL > 100 µM

NC(CNc1ccc(O)cc1)C(=O)O (stereo not given)
inactive: DLD-1 > 100 µM | XF498 13.5 µM | RXF 631 92.3 µM | DMS-114 > 100 µM | SNB-78 > 100 µM | LXFL 529 > 100 µM | KM-20L2 63 µM | HOP-18 > 100 µM | M19-MEL 28.8 µM

COC(=O)Cc1nc2ccccc2o1
inactive: DLD-1 45.1 µM | XF498 59 µM | RXF 631 > 100 µM | DMS-114 36.1 µM | SNB-78 > 100 µM | LXFL 529 49.3 µM | KM-20L2 20.5 µM | HOP-18 > 100 µM | M19-MEL 30.5 µM

O=S1OC(c2ccccc2)(c2ccccc2)C(c2ccccc2)(c2ccccc2)O1
inactive: DLD-1 > 73.8 µM | XF498 56.2 µM | RXF 631 > 100 µM | DMS-114 36.8 µM | SNB-78 > 100 µM | LXFL 529 7.45 µM | KM-20L2 18 µM | HOP-18 > 100 µM | M19-MEL > 86.7 µM

CCc1nc2c([nH]1)C(=O)c1ccccc1C2=O
inactive: DLD-1 39.1 µM | XF498 15.9 µM | DMS-114 21.2 µM | SNB-78 53.7 µM | M19-MEL 15.3 µM

CCCCCCCC(=O)OCC(C[As](=O)(O)O)OC(=O)CCCCCCC (stereo not given)
inactive: DLD-1 16.9 µM | DMS-114 16.4 µM | SNB-78 18.7 µM | LXFL 529 13.4 µM | KM-20L2 16.7 µM | HOP-18 15.8 µM | M19-MEL 15.7 µM

Cc1ccc(Nc2cccc3c2C(=O)c2cccc(Nc4ccc(C)cc4S(=O)(=O)O)c2C3=O)c(S(=O)(=O)O)c1
inactive: DLD-1 > 100 µM | RXF 631 > 100 µM | DMS-114 > 100 µM | SNB-78 > 100 µM | LXFL 529 > 100 µM | KM-20L2 > 100 µM | HOP-18 > 100 µM | M19-MEL > 100 µM

c1ccc(C2OC3(CCC[C@H]4C[C@H]43)O[C@H]2c2ccccc2)cc1 (stereo not given in full)
inactive: DLD-1 78.9 µM | XF498 22.7 µM | RXF 631 89.3 µM | DMS-114 33.7 µM | SNB-78 58.9 µM | KM-20L2 30.8 µM | M19-MEL 32.2 µM

CC1C=CC(O)[C@]2(CO)CC3(CCC12)OCCO3 (stereo not given in full)
inactive: DLD-1 > 100 µM | XF498 > 100 µM | RXF 631 > 100 µM | DMS-114 > 100 µM | SNB-78 > 100 µM | LXFL 529 > 100 µM | KM-20L2 > 100 µM | M19-MEL > 100 µM

O=C(CC(=O)c1ccccc1)c1ccccc1.O=C(CC(=O)c1ccccc1)c1ccccc1.O=C(CC(=O)c1ccccc1)c1ccccc1.[SiH4]
inactive: DLD-1 3.7 µM | XF498 3.87 µM | DMS-114 2.3 µM | LXFL 529 3.39 µM | KM-20L2 4.18 µM | HOP-18 6.71 µM | M19-MEL 3.31 µM
